These results are taken from the OligoGym collection.

For the data set, the target named is HSD17B13. The settings on record: ASO, HepaRG.

Several values for one entry are separate records, joined by “and”; a condition that tells them apart may be missing. Equal values may be shown once. After the bases stand the sugars from the 5' end (letter, count) and the backbone: PS all phosphorothioate, else s phosphorothioate and o phosphodiester by linkage. Methylation of C is not given here. e = 2'-O-(2-methoxyethyl) (MOE); k = constrained ethyl (cEt); d = 2'-deoxy (DNA); m = 2'-O-methyl

With GATGCTCCATAATAAT (sugars k3 d10 k3, PS), for the setting “1 µM”, the target mRNA inhibition was determined as 42%.

“GTTGCACCGTTTTGGG (sugars kkdddddddddkekek, PS)” yielded a target mRNA inhibition (1 µM) of 35%. On the same count and under the same terms, under ATATACTGTCCCAGCA (sugars k3 d10 k3, PS) stands 43%; under TCCAAAGATGAGAGTC (sugars k3 d10 k3, PS), 17%. Regarding CATATCAATGCCTTAG (sugars k3 d10 k3, PS), where the note is “1 µM”, the target mRNA inhibition came to 29%. For the setting “1 µM”, GAAATAACTGTTCTCC (sugars k3 d10 k3, PS) yielded a target mRNA inhibition of 32%. Consider “CATCUTAAGATACCCA (sugars k3 d1 m1 d8 k3, PS)”, for which the target mRNA inhibition (1 µM) was determined as 56%. Regarding CGTATTTGAGATTCAC (sugars k3 d10 k3, PS), the target mRNA inhibition (1 µM) was found to be 59%. On to GTAAATGATGGCAGGA (sugars k3 d10 k3, PS), for which, for the setting “1 µM”, the target mRNA inhibition is 34%. With “CTATAGTAATCACAAG (sugars k3 d1 m1 d8 k3, PS)”, the target mRNA inhibition (1 µM) turned out to be 37%. Under “1 µM”, GGCATGGCTACAGATT (sugars k3 d10 k3, PS) gave a target mRNA inhibition of 69%.

For AGCGATAGATCTCTTC (sugars k3 d10 k3, PS), where the note is “1 µM”, the target mRNA inhibition turned out to be 31%. On to TAAACATAGGCTTAGT (sugars k3 d10 k3, PS), for which the target mRNA inhibition (1 µM) was determined as 34%. For “GTCCAGGTTGAGATAA (sugars k3 d1 m1 d8 k3, PS)”, for the setting “1 µM”, the target mRNA inhibition came to 68%. For TTAGAGTGAATCATTC (sugars k3 d10 k3, PS), under “1 µM”, the target mRNA inhibition stood at 69%. Take TAGTTTTCGGCACTCA (sugars k3 d10 k3, PS): the target mRNA inhibition (1 µM) was found to be 35%.

Take CTCTCCATCATCGATG (sugars k3 d10 k3, PS): under “1 µM”, the target mRNA inhibition was found to be 0%. With GTCATAAAAATCGCTG (sugars k3 d10 k3, PS), the target mRNA inhibition (0.02 µM) was found to be 25%; the target mRNA inhibition (0.078 µM) is 34%; the target mRNA inhibition (0.313 µM) came out at 51%; the target mRNA inhibition (1 µM) stood at 72%; the target mRNA inhibition (1.25 µM) was 70%; the target mRNA inhibition (5 µM) was determined as 86%. Regarding “CTGGAACAATATGGGA (sugars k3 d1 m1 d9 k2, PS)”, for the setting “1 µM”, the target mRNA inhibition was 45%. The sequence “GACTGCTGCTAGTGCC (sugars k3 d9 k3 e1, PS)” came in with a target mRNA inhibition (1 µM) of 49%.

For the sequence TTATTGCCTGAACACA (sugars k3 d10 k3, PS), the target mRNA inhibition (1 µM) was 58%. On to CCAGTACAGTTCCTTT (sugars k3 d10 k3, PS), for which the target mRNA inhibition turned out to be 38% (0.02 µM); 37% (0.078 µM); 53% (0.313 µM); 66% (1 µM); 75% (1.25 µM); 89% (5 µM).

Consider “ACATTGCAGTTATTAG (sugars k3 d9 k3 e1, PS)”, for which the target mRNA inhibition (1 µM) is 52%. Same read-out and setting: as for CTCTATTGATTGGCTT (sugars k3 d10 k3, PS), the figure is 65%; as for “TAGTAATCACAAGTAA (sugars k3 d9 k3 e1, PS)”, 65%. The sequence CATAGTTTATATGGAT (sugars k3 d10 k3, PS) showed a target mRNA inhibition (1 µM) of 56%. Same read-out and setting: as for “CCAGGTTGAGATAAAG (sugars k3 d9 k3 e1, PS)”, the figure is 51%. Still for that read-out and setting: as for GAACAGTCTTAAACCT (sugars k3 d10 k3, PS), the figure is 64%. As for “GTGCATCTTAAGATAC (sugars k3 d9 k3 e1, PS)”, under “1 µM”, the target mRNA inhibition was found to be 29%. In the case of CCCCTAAGTTATTATC (sugars k3 d10 k3, PS), the target mRNA inhibition (1 µM) came to 33%. Turning to “TAGAGTCGGTCACCTT (sugars kkdddddddddkekek, PS)”, the target mRNA inhibition (1 µM) was found to be 48%.

Sequence “CACCGTTTTGGGCTAA (sugars k3 d9 k3 e1, PS)” registered a target mRNA inhibition (1 µM) of 71%. AACACTAATCTCAGTA (sugars k3 d10 k3, PS) yielded a target mRNA inhibition (1 µM) of 15%.

In turn, AACGACTCCAAGTAGG (sugars k3 d10 k3, PS) came in with a target mRNA inhibition (1 µM) of 27%. Under “1 µM”, TGCCCCGAATTATTTC (sugars k3 d10 k3, PS) gave a target mRNA inhibition of 3%.

Take ACTGTGACGATGTGGC (sugars k3 d10 k3, PS): the target mRNA inhibition (1 µM) amounted to 40%. Under “1 µM”, ATAGGAGAGTCTTTCA (sugars k3 d10 k3, PS) yielded a target mRNA inhibition of 77%. On to GCACCAACTATGTAAT (sugars k3 d10 k3, PS), for which the target mRNA inhibition (1 µM) stood at 53%. Regarding “AACAGTCTTAAACCTT (sugars k3 d1 m1 d8 k3, PS)”, under “1 µM”, the target mRNA inhibition amounted to 75%. AAAGTTAGTTGGGCGA (sugars k3 d10 k3, PS) gave a target mRNA inhibition (1 µM) of 26%.

As for TAGCCAGTACAGTTCC (sugars k3 d10 k3, PS), the target mRNA inhibition (1 µM) was 52%. On the same count and under the same terms, as for GAATCATTAAGCTTAG (sugars k3 d10 k3, PS), the figure is 63%; as for TGATTTAGAGAGCGAT (sugars k3 d10 k3, PS), 35%; as for “TAGCCAGTACAGTTCC (sugars kkdddddddddkekek, PS)”, 57%.

Sequence CCGAATTATTTCTTGC (sugars k3 d10 k3, PS) came in with a target mRNA inhibition (1 µM) of 60%.

“TCCATAATAATAGCTC (sugars k3 d9 k3 e1, PS)” had a target mRNA inhibition (1 µM) of 66%.

TGCAACTTTTAGTCAG (sugars k3 d10 k3, PS) returned a target mRNA inhibition (1 µM) of 41%. “ATAGAGTCGGTCACCT (sugars kkdddddddddkekek, PS)” displayed a target mRNA inhibition (1 µM) of 56%. On the same count and under the same terms, as for GGAACAATATGGGATG (sugars k3 d10 k3, PS), the figure is 36%. Under “1 µM”, “GCTCCATAATAATAGC (sugars k3 d9 k3 e1, PS)” yielded a target mRNA inhibition of 8%. Still for that read-out and setting: as for “TAGTCTTGATGTAGTG (sugars kkdddddddddkekek, PS)”, the figure is 43%.

In the case of TTTTGTCCACCTTTAA (sugars k3 d10 k3, PS), the target mRNA inhibition (1 µM) turned out to be 68%. For CTGATATGAGTAAAGA (sugars k3 d10 k3, PS), for the setting “1 µM”, the target mRNA inhibition turned out to be 21%.

Regarding CTCTAAGTGTAAGAGA (sugars k3 d10 k3, PS), the target mRNA inhibition (1 µM) stood at 28%. CACCACGATTGTTACA (sugars k3 d10 k3, PS) registered a target mRNA inhibition (1 µM) of 36%. With ACCTTATTAATATCCC (sugars k3 d10 k3, PS), the target mRNA inhibition by setting is: (0.02 µM) 0%; (0.078 µM) 0%; (0.313 µM) 0%; (1 µM) 71% and 50%; (1.25 µM) 72%; (5 µM) 90%. Under “1 µM”, GAGATAAAGCTGCCTG (sugars k3 d10 k3, PS) registered a target mRNA inhibition of 67%. Take “TGGGACCAAGGATATA (sugars kkdddddddddkekek, PS)”: the target mRNA inhibition (1 µM) came out at 30%. Sequence TGCATAAGAGCCAAAC (sugars k3 d10 k3, PS) returned a target mRNA inhibition (1 µM) of 56%. The sequence GATTACAGCATCAAGA (sugars k3 d10 k3, PS) had a target mRNA inhibition (1 µM) of 52%.

The sequence TAGGATTAATCATGGG (sugars k3 d10 k3, PS) came in with a target mRNA inhibition (1 µM) of 47%.

Regarding ATTGGAATGCTACTTG (sugars k3 d10 k3, PS), the target mRNA inhibition (1 µM) was determined as 53%. The same measure, in the same setting: under “CCTAUATACATCCAAG (sugars k3 d1 m1 d8 k3, PS)” stands 39%. Turning to CATTTTTAATACGACT (sugars k3 d10 k3, PS), the target mRNA inhibition (1 µM) stood at 57%. Consider CTAAATTATTGCCTGA (sugars k3 d10 k3, PS), for which the target mRNA inhibition (1 µM) is 39%. For the sequence GCTTAATTTTCGGGTT (sugars k3 d10 k3, PS), for the setting “1 µM”, the target mRNA inhibition was determined as 36%. In the case of GTCTACCACATACGCA (sugars k3 d10 k3, PS), for the setting “1 µM”, the target mRNA inhibition turned out to be 66%.

Consider GGATGTTGACCTCAAA (sugars k3 d10 k3, PS), for which the target mRNA inhibition (1 µM) stood at 5%.

Regarding TATTAAGACAGTTGAG (sugars k3 d10 k3, PS), the target mRNA inhibition (1 µM) was 44%.

The sequence TGGCTATAGTAATTGC (sugars k3 d10 k3, PS) yielded a target mRNA inhibition (1 µM) of 34%. Under “1 µM”, CATTTGAAGTCTATAC (sugars k3 d10 k3, PS) gave a target mRNA inhibition of 21%. On to GTCTTGATGTAGTGGG (sugars k3 d10 k3, PS), for which the target mRNA inhibition reads like this: (0.02 µM) 17%; (0.078 µM) 22%; (0.313 µM) 41%; (1 µM) 67%; (1.25 µM) 72%; (5 µM) 87%. For the sequence TATGTGATTGAGTTCT (sugars k3 d10 k3, PS), the target mRNA inhibition (1 µM) was determined as 28%.

For the sequence “ACTACAAGAGGTTATT (sugars kkdddddddddkekek, PS)”, the target mRNA inhibition (1 µM) is 42%. AAAACTTCACCAACGA (sugars k3 d10 k3, PS) gave a target mRNA inhibition (1 µM) of 29%.

For “GTTGAGATAAAGCTGC (sugars k3 d1 m1 d8 k3, PS)”, the target mRNA inhibition (1 µM) was found to be 51%. The sequence ACAAGAGGATAGTCCA (sugars k3 d10 k3, PS) returned a target mRNA inhibition (1 µM) of 64%. “CACCGTTTTGGGCTAA (sugars k3 d1 m1 d8 k3, PS)”: the target mRNA inhibition (0.02 µM) was 12%; the target mRNA inhibition (0.078 µM) stood at 32%; the target mRNA inhibition (0.313 µM) was found to be 54%; the target mRNA inhibition (1 µM) came out at 82%; the target mRNA inhibition (1.25 µM) is 71%; the target mRNA inhibition (5 µM) amounted to 84%. In the case of TCCATCATCGATGGAA (sugars k3 d10 k3, PS), the target mRNA inhibition (1 µM) was 31%.

As for “GTCCAGGTTGAGATAA (sugars kkdddddddddkekek, PS)”, the target mRNA inhibition (1 µM) amounted to 36%. Take ATTTAGAGAGCGATAG (sugars k3 d10 k3, PS): the target mRNA inhibition (1 µM) was determined as 14%. As to ATGCATAAGAGATGAG (sugars k3 d10 k3, PS), for the setting “1 µM”, the target mRNA inhibition was determined as 30%. For “TTAATGCCACCCTACC (sugars k3 d9 k3 e1, PS)”, the target mRNA inhibition (1 µM) worked out at 20%.

Take TTGATGTAGTGGGAGT (sugars k3 d10 k3, PS): the target mRNA inhibition (1 µM) came to 68%.

In turn, TTAGGATTAATTCCCT (sugars k3 d10 k3, PS) registered a target mRNA inhibition (1 µM) of 14%.
